According to article PMC6212778, “Site-specific amino acid substitution in dodecameric peptides determines the stability and unfolding of c-MYC quadruplex promoting apoptosis in cancer cells” (Nucleic Acids Research, 2018):

Legend:
[1] = system: KR12C (synthetic, derived from human LL37); experiment: ITC; conditions: ITC: 10 mM potassium phosphate pH 7.0, 100 mM KCl, 25 C, 20 uM peptide in cell, 500 uM G4 DNA in syringe, one-site fit. NMR: same buffer, 10% D2O, NOESY at …; for binding signal (fold lower affinity than c-MYC G4): 100 mM KCl, fold order read as BCL-2 then telomere
[2] = system: KR12C (synthetic, derived from human LL37); experiment: CD melting; conditions: ITC: 10 mM potassium phosphate pH 7.0, 100 mM KCl, 25 C; 20 uM peptide in cell, 500 uM G4 DNA in syringe; one-site fit. NMR: same buffer, 10% D2O, NOESY at …
[3] = system: native c-MYC quadruplex (Pu27); experiment: ITC of peptides with native c-MYC quadruplex Pu27 in potassium phosphate buffer; type: binding, human; conditions: 25°C, 20 μM peptide in cell, 500 μM Pu27 in syringe, 10 mM potassium phosphate, 0.1 M KCl, pH 7.0, one-site model
Procedure: The putative wild-type and truncated G-quadruplex forming sequences (Table 2 and Supplementary Table S1), located at the upstream of c-MYC promoter are reconstituted in 10 mM Potassium Phosphate buffer (pH 7.0) having 100 mM potassium chloride (KCl). The sequences are allowed to evolve G-quadruplex structure in solution by annealing at 95°C followed by gradual cooling. (Supplementary information Section 1).
Thermodynamic attributes of the interaction profiles between peptides and putative quadruplex sequences are analysed by ITC using iTC200 Microcalorimeter at 25°C. Synthetic peptides (FK13, KR12A, KR12B, KR12C, KR12D and KR12E) are diluted to 20 μM in 10 mM Potassium phosphate buffer (10 mM K2HPO4 + 10 mM KH2PO4) containing 0.1 M KCl (pH 7.0). Syringe is filled with 500 μM quadruplex sequences present in the upstream promoter regions of c-MYC (Pu27, Pu19, and Myc22), BCL-2 (Pu30), VEGF-A (Pu22), KRAS (Pu32) oncogenes, and telomere (Tel26) dissolved into the same buffer. We also carried out the experiment for KR12C and Pu27 using MCF-7 nuclear extract as the solvent to mimic the cellular microenvironment and impart macromolecular crowding during binding events. Same concentration of oligonucleotides is injected into the identical buffer or in nuclear extract without peptides to normalize the heat of dilution of peptide-quadruplex association to that of the control before curve-fitting. Oligonucleotides are injected 20 times at an interval of 150 s into the calorimeter cell having the peptides to achieve binding saturation. The heat of reaction per injection (μcal/s) is determined by integration of the peak areas using in-built Origin 7.0 software that provides the best-fit values of enthalpy (ΔH) and entropy (ΔS) of binding, the binding stoichiometry (n), and dissociation constant (Kd) (Supplementary Tables S5(a), S5(b) and S5(c)). Data points are further simulated with ‘one-site’ binding modes (Supplementary information Section 1).

c-MYC quadruplex Pu27 = experiment: CD melting of free and peptide-bound Pu27; type: binding, human
Procedure: To understand the role of peptides (FK13, KR12A, KR12B, KR12C, KR12D and KR12E) in stabilizing native and truncated isomers of c-MYC G-quadruplex, we have performed temperature-driven CD melting experiments for free and peptide-bound complexes in JASCO-J815 CD spectrometer. We have gradually titrated the peptides into 10 μM of putative quadruplexes and acquired the spectra after 5 min of peptide addition to allow complex formation and equilibration. Samples are heated from 20 to 95°C having the temperature gradient and the delay time of 2.5°C/min and 150 s respectively. Since the quadruplexes unfold at higher temperatures and revert back to their initial conformations upon renaturation, we have assumed a ‘two-state transition’ model (folded and unfolded) to analyze the melting curves and estimated the melting temperatures (Tm) by fitting the data points into sigmoidal curves (Supplementary information Section 1).

[4] = system: c-MYC promoter (Pu27-GQ) in MCF-7 cells; experiment: Dual-luciferase assay, c-MYC promoter with Pu27-GQ; type: cell-based, human; conditions: MCF-7, 24 h, peptide 0–60 μM
Procedure: (§1) MCF-7 cells are sub-cultured into 24-well microtiter plates at a cell density of 1 × 10^5 cells/well. Reporter constructs (c-MYC, BCL-2, KRAS and VEGF-A) (500 ng) with and/or without the G-quadruplex scaffolds triggering the expression of Renilla luciferase are co-transfected with 50 ng of pGL3-control vectors (Promega) (used as internal control), encoding firefly luciferase into MCF-7 cells using Lipofectamine® 3000 transfection reagent (Thermo-Fisher Scientific) following manufacturer's recommendations (Supplementary information Section 1). Twenty four hours post-transfection, cells are treated with peptides (FK13, KR12A, KR12B, KR12C, KR12D and KR12E) at an increasing concentration gradient.
(§2) Dual-luciferase assays are performed to examine the intracellular selectivity of peptides for c-MYC quadruplex isomers (Pu27, Myc22 and Pu19) over other oncogenic quadruplexes (BCL-2, VEGF-A and KRAS) of different topologies. The role of peptide-quadruplex complex in oncogene promoter activation is investigated in contrast to the GQ-null promoter constructs into MCF-7 cells ([67]). After 24 h of peptide treatment, cells are washed and lysed into 100 μl 1× Passive lysis buffer (PLB) for 15 min at room temperature. Renilla and firefly Luciferase activities in 25 μl lysate are quantified by Dual-Luciferase® reporter assay system (Promega) as per manufacturer's recommendations. Renilla luciferase enzyme activity is normalized to that of the firefly luciferase activity and luminescence of the peptide-treated samples are normalized to the untreated ones, which yield the fold induction values for Renilla activities by different quadruplex structures in presence and absence of synthetic peptides. Luminescence of each sample is detected in GloMax® 20/20 Single-Tube Luminometer (Promega) in triplicates and averaged from three independent experiments.

[5] = system: BCL-2 promoter (BCL-2-GQ) in MCF-7 cells; experiment: Dual-luciferase assay, BCL-2 promoter with BCL-2-GQ; type: cell-based, human; conditions: MCF-7, 24 h, peptide 0–60 μM
Procedure: as §1, §2

[6] = system: KRAS promoter (KRAS-GQ) in MCF-7 cells; experiment: Dual-luciferase assay, KRAS promoter with KRAS-GQ; type: cell-based, human; conditions: MCF-7, 24 h
Procedure: as §1, §2

[7] = system: VEGF-A promoter (VEGF-A-GQ) in MCF-7 cells; experiment: Dual-luciferase assay, VEGF-A promoter with VEGF-A-GQ; type: cell-based, human; conditions: MCF-7, 24 h, peptide 0–60 μM
Procedure: as §1, §2

[8] = system: c-MYC promoter with Myc22 isomer in MCF-7 cells; experiment: Dual-luciferase assay, c-MYC promoter under control of Myc22; type: cell-based, human; conditions: MCF-7, 24 h peptide treatment
Procedure: as §1, §2

[9] = system: c-MYC promoter with Pu19 isomer in MCF-7 cells; experiment: Dual-luciferase assay, c-MYC promoter under control of Pu19; type: cell-based, human; conditions: MCF-7, 24 h peptide treatment
Procedure: as §1, §2

[10] = system: KR12A (synthetic, derived from human LL37); experiment: ITC; conditions: ITC: 10 mM potassium phosphate pH 7.0, 100 mM KCl, 25 C; 20 uM peptide in cell, 500 uM G4 DNA in syringe; one-site fit. NMR: same buffer, 10% D2O, NOESY at …
[11] = system: KR12B (synthetic, derived from human LL37); experiment: ITC; conditions: ITC: 10 mM potassium phosphate pH 7.0, 100 mM KCl, 25 C; 20 uM peptide in cell, 500 uM G4 DNA in syringe; one-site fit. NMR: same buffer, 10% D2O, NOESY at …
[12] = system: KR12D (synthetic, derived from human LL37); experiment: ITC; conditions: ITC: 10 mM potassium phosphate pH 7.0, 100 mM KCl, 25 C; 20 uM peptide in cell, 500 uM G4 DNA in syringe; one-site fit. NMR: same buffer, 10% D2O, NOESY at …
[13] = system: KR12E (synthetic, derived from human LL37); experiment: ITC; conditions: ITC: 10 mM potassium phosphate pH 7.0, 100 mM KCl, 25 C; 20 uM peptide in cell, 500 uM G4 DNA in syringe; one-site fit. NMR: same buffer, 10% D2O, NOESY at …
[14] = system: KR12A (synthetic, derived from human LL37); experiment: CD melting; conditions: destabilizes; ITC: 10 mM potassium phosphate pH 7.0, 100 mM KCl, 25 C; 20 uM peptide in cell, 500 uM G4 DNA in syringe; one-site fit. NMR: same buffer, 10% D2O, NOESY at …
[15] = system: KR12E (synthetic, derived from human LL37); experiment: CD melting; conditions: destabilizes; ITC: 10 mM potassium phosphate pH 7.0, 100 mM KCl, 25 C; 20 uM peptide in cell, 500 uM G4 DNA in syringe; one-site fit. NMR: same buffer, 10% D2O, NOESY at …
[16] = molecular target: T1, FK13 (LL37-derived peptide) (Homo sapiens (synthetic, derived from …, UniProt P49913 150-162)); experiment: ITC; 100 mM KCl; ITC: 10 mM potassium phosphate pH 7.0, 100 mM KCl, 25 C; 20 uM peptide in cell, 500 uM G4 DNA in syringe; one-site fit. NMR: same buffer, 10% D2O, NOESY at 15 C; conditions: G4, unimolecular
T1 chain: FKRIVQRIKDFLR

**Q.** Which binding signal (fold lower affinity than c-MYC G4) [1] does the source give for BCL-2 Pu30 quadruplex here?
**A.** 3

**Q.** With TGGGGAGGGTGGGGAGGGT [Pu19] as the molecule, how does the binding signal (delta Tm, deg C) [2] read?
**A.** 10.9

**Q.** What does the source list for “N – KRIVKRIKKWLL – C [KR12E, dodecameric mutant peptide derived from FK13 / LL37]”?
**A.** K A [3]: 18800 M⁻¹; Kd [3]: 53.2 µM; ΔG (binding energy) [3]: -5.89 kcal/mol; ΔH (binding enthalpy) [3]: -168 kcal/mol; ΔS (entropy) [3]: −544 cal/mol/deg; decrease of the Tm of Pu27 upon peptide binding (c-MYC quadruplex Pu27; 10 μM quadruplex, two-state model): ~30 °C; c-MYC promoter activity [4]: no significant effects; BCL-2 promoter activity [5]: no significant effects; KRAS promoter activity ([6]; peptide 0–60 μM): no significant effects; VEGF-A promoter activity [7]: no significant effects; c-MYC promoter activation under control of Myc22 [8]: no regulatory effect; c-MYC promoter activation under control of Pu19 [9]: no regulatory effect

**Q.** For “TGGGGAGGGTGGGGAGGGTGGGGAAGG [Pu27 c-MYC quadruplex]”, which Kd [10] is on record?
**A.** 61.7 µM

**Q.** And the Kd [11]?
**A.** 37.3 µM

**Q.** And the Kd [1]?
**A.** 8.06 µM

**Q.** What about the Kd ([1]; MCF-7 nuclear extract as solvent (crowding)) of the same molecule?
**A.** 0.901 µM

**Q.** And the Kd [12]?
**A.** 49 µM

**Q.** And the Kd [13]?
**A.** 53.2 µM

**Q.** And the binding signal (delta Tm, deg C) [14]?
**A.** -30

**Q.** And the binding signal (delta Tm, deg C) [2]?
**A.** 9

**Q.** And the binding signal (delta Tm, deg C) [15]?
**A.** -30

**Q.** Which binding signal (delta Tm, deg C) [2] does the source give for GGAGGGTGGGGAGGGTGGGGAA [Myc22] here?
**A.** 6.91

**Q.** Which “K A” value [3] does the source give for “N – KRIVKVIKKWLR – C [KR12D, dodecameric mutant peptide derived from FK13 / LL37]” here?
**A.** 20400 M⁻¹

**Q.** What about the Kd [3] of the same molecule?
**A.** 49 µM

**Q.** What about the “ΔG (binding energy)” value [3] of the same molecule?
**A.** -5.774 kcal/mol

**Q.** What about the “ΔH (binding enthalpy)” value [3] of the same molecule?
**A.** -136 kcal/mol

**Q.** What about the “ΔS (entropy)” value [3] of the same molecule?
**A.** −437 cal/mol/deg

**Q.** What about the “effect on thermal stability of Pu27” value (c-MYC quadruplex Pu27) of the same molecule?
**A.** did not significantly induce thermal stability

**Q.** And the “c-MYC promoter activity” value [4]?
**A.** no significant effects

**Q.** And the “BCL-2 promoter activity” value [5]?
**A.** no significant effects

**Q.** And the “KRAS promoter activity, fold inhibition” value ([6]; at higher concentration)?
**A.** ~1.6 fold

**Q.** And the “VEGF-A promoter activity” value [7]?
**A.** no significant effects

**Q.** What about the “c-MYC promoter activation under control of Myc22” value [8] of the same molecule?
**A.** no regulatory effect

**Q.** And the “c-MYC promoter activation under control of Pu19” value [9]?
**A.** no regulatory effect

**Q.** How did the binding signal (fold lower affinity than c-MYC G4) [1] turn out when Tel26 telomeric quadruplex was run?
**A.** 4

B1: Pu27 c-MYC quadruplex (structured_DNA)
DNA: TGGGGAGGGTGGGGAGGGTGGGGAAGG
**Q.** With B1 as the molecule, how does the Kd [16] read?
**A.** 34.6 µM
